Laboratory results: patent publication US11572590B2, “Methods for evaluating tumor cell spheroids using 3D microfluidic cell culture device” (Dana-Farber Cancer Institute, Inc., priority 2017, dated 2023)
Where two headings read alike, the source gives them in different places.

Experiments:
Test in all cases: SelectScreen Kinase Profiling, single point inhibition and IC50 for off-target kinases
Type in all cases: biochemical
off-target kinases [1] = target: T1, off-target kinases (Homo sapiens, UniProt Q09013); conditions: DMPK, LanthaScreen Binding
T1 sequence (Q09013 1-629): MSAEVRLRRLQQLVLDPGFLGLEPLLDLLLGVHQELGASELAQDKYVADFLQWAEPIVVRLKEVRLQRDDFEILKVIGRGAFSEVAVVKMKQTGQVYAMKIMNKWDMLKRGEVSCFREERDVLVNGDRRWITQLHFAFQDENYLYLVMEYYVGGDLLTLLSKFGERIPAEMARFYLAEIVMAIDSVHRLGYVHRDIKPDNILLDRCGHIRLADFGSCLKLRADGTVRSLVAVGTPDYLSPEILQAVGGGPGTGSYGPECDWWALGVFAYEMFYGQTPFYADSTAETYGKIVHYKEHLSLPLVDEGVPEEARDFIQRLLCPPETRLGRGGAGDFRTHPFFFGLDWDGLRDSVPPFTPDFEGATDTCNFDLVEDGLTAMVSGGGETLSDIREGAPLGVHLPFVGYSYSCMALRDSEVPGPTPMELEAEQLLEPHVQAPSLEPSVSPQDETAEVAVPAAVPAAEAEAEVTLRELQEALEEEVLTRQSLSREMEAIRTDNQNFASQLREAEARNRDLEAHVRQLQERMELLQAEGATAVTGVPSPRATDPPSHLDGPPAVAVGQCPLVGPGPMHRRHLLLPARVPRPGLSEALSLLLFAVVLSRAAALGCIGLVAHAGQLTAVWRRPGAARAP

off-target kinases [2] = target: off-target kinases (Homo sapiens, UniProt Q15208); conditions: STK38 (NDR), LanthaScreen Binding
Sequence of off-target kinases (Homo sapiens, UniProt Q15208) (Q15208 whole entry): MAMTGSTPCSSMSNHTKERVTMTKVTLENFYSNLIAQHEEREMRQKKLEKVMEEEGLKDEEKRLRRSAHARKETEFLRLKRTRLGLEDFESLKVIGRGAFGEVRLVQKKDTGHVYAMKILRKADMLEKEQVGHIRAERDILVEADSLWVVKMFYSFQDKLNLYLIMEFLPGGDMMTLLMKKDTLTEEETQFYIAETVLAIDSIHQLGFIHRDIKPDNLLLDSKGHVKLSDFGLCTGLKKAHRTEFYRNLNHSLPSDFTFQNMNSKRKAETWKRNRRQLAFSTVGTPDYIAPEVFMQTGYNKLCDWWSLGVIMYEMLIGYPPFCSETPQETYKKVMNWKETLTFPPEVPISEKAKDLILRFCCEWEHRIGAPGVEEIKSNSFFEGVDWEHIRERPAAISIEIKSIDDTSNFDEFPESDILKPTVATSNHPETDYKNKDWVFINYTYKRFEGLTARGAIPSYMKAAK

off-target kinases [3] = target: off-target kinases (Homo sapiens, UniProt Q16539); conditions: ZLYTE
Sequence of off-target kinases (Homo sapiens, UniProt Q16539) (Q16539 whole entry): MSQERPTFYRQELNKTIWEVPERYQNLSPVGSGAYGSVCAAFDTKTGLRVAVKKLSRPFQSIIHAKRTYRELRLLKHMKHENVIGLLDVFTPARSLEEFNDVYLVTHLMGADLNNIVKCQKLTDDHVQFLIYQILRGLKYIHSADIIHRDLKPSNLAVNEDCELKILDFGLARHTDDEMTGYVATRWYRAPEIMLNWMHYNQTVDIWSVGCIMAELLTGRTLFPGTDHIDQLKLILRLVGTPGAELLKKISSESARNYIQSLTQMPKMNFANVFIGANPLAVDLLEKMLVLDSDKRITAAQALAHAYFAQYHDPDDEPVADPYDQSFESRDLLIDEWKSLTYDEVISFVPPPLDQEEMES

off-target kinases [4] = target: off-target kinases (Homo sapiens, UniProt O96013); conditions: PAK4, ATP Km app, ZLYTE
Sequence of off-target kinases (Homo sapiens, UniProt O96013) (O96013 whole entry): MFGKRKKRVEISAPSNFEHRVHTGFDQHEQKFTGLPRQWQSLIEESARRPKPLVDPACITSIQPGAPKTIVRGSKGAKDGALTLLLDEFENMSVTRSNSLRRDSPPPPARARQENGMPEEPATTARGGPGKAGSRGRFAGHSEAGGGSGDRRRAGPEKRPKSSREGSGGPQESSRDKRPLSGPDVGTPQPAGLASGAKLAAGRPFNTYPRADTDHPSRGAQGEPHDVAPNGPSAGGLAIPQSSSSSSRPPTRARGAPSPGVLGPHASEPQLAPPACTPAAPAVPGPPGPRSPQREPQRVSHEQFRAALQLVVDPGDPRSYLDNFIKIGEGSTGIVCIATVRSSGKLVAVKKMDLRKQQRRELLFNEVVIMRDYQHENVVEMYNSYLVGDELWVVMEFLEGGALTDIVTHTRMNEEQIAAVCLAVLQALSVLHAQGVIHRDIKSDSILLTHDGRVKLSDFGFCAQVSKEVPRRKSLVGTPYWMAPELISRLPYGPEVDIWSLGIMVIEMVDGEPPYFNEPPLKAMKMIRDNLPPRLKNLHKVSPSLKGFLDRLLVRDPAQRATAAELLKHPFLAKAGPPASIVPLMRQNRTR

off-target kinases [5] = target: off-target kinases (Homo sapiens, UniProt P34947); conditions: GRK5, ZLYTE, ATP Km app
Sequence of off-target kinases (Homo sapiens, UniProt P34947) (P34947 whole entry): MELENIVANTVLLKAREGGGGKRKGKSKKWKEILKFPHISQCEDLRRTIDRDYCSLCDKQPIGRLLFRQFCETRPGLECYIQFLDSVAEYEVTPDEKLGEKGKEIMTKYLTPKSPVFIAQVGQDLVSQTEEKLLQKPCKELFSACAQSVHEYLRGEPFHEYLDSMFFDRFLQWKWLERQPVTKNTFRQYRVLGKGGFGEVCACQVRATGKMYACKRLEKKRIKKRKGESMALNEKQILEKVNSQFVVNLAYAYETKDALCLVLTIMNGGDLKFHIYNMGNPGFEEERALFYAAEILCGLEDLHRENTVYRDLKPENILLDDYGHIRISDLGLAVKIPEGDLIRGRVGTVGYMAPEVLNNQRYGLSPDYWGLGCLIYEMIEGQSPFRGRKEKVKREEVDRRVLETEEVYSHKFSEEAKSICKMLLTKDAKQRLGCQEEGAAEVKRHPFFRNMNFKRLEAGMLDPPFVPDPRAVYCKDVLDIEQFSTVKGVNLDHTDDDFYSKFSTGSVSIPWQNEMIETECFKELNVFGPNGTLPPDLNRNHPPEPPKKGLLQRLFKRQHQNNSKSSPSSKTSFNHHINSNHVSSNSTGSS

off-target kinases [6] = target: off-target kinases (Homo sapiens, UniProt Q96S53); conditions: TESK2, LanthaScreen Binding
Sequence of off-target kinases (Homo sapiens, UniProt Q96S53) (Q96S53 whole entry): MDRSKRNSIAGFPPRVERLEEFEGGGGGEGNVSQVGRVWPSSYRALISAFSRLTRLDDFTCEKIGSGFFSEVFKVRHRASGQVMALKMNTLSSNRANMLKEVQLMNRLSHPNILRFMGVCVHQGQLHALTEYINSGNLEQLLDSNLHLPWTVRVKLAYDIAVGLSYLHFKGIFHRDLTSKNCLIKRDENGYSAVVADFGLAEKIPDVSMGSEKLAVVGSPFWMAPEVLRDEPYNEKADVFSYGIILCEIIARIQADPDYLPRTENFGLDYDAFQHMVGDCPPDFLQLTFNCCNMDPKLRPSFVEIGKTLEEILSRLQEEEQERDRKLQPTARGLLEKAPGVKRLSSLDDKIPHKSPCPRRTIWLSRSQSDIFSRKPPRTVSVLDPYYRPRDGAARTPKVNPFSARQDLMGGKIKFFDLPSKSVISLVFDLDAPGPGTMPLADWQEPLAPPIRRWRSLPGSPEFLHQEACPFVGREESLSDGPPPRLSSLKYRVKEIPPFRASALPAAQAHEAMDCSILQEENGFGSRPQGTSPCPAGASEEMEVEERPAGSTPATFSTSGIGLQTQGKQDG

off-target kinases [7] = target: off-target kinases (Homo sapiens, UniProt P06241)
Sequence of off-target kinases (Homo sapiens, UniProt P06241) (P06241 whole entry): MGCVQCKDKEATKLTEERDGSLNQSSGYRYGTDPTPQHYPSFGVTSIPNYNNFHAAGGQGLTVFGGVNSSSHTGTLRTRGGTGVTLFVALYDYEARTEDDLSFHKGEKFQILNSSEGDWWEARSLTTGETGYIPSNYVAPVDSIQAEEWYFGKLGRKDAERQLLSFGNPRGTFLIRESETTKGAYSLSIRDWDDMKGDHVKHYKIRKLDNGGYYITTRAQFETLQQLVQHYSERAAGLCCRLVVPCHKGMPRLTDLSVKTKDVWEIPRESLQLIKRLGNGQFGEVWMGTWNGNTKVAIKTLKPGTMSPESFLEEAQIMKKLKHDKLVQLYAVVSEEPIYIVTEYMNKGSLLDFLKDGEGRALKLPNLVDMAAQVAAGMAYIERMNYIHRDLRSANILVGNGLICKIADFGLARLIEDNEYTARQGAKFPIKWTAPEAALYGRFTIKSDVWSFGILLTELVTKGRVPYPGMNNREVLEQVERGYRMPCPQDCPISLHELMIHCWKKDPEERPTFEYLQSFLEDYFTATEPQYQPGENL

off-target kinases [8] = target: off-target kinases (Homo sapiens, UniProt Q9H1R3); conditions: MYLK2 (skMLCK), ATP Km app, ZLYTE
Sequence of off-target kinases (Homo sapiens, UniProt Q9H1R3) (Q9H1R3 whole entry): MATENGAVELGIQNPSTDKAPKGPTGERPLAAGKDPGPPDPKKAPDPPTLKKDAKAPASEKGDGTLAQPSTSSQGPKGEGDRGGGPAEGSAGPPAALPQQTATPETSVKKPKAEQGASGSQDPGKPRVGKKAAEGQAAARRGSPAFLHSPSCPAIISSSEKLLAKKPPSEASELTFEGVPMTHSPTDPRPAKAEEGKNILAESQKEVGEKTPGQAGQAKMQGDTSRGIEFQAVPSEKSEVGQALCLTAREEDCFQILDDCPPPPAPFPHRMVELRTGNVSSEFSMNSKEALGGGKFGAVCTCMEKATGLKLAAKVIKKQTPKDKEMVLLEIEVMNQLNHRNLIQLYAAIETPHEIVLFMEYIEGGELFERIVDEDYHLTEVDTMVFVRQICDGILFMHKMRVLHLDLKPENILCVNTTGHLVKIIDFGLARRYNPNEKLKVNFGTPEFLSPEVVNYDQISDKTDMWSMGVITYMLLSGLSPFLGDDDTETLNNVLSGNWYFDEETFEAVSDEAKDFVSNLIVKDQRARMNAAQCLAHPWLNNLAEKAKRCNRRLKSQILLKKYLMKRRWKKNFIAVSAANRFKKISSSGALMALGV

off-target kinases [9] = target: off-target kinases (Homo sapiens, UniProt P24941)

## N#Cc1cc(-c2ncnc(Nc3ccc(N4CCN(C5COC5)CC4)cc3)n2)ccc1OC1CCOCC1 [Compound 1, 5-(4-((4-(4-(oxetan-3-yl)piperazin-1-yl)phenyl)amino)-1,3,5-triazin-2-yl)-2-((tetrahydro-2H-pyran-4-yl)oxy)benzonitrile]
off-target kinases [1]; read-out: % Inhibition 1
  inhibition: 76%
off-target kinases [1]; read-out: % Inhibition 2
  inhibition: 79%
off-target kinases [1]; read-out: % Inhibition Avg
  inhibition: 78%
off-target kinases [2]; read-out: % Inhibition 1
  inhibition: 51%
off-target kinases [2]; read-out: % Inhibition 2
  inhibition: 49%
off-target kinases [2]; read-out: % Inhibition Avg
  inhibition: 50%
off-target kinases [3]; MAPK14 (p38 alpha) Direct, ATP Km app, read-out: % Inhibition 1
  inhibition: 2%
off-target kinases [3]; MAPK14 (p38 alpha) Direct, ATP Km app, read-out: % Inhibition 2
  inhibition: 1%
off-target kinases [3]; MAPK14 (p38 alpha) Direct, ATP Km app, read-out: % Inhibition Avg
  inhibition: 1%
off-target kinases [3]; MAPK14 (p38 alpha), ATP 100, read-out: % Inhibition 1
  inhibition: -1%
off-target kinases [3]; MAPK14 (p38 alpha), ATP 100, read-out: % Inhibition 2
  inhibition: 9%
off-target kinases [3]; MAPK14 (p38 alpha), ATP 100, read-out: % Inhibition Avg
  inhibition: 4%
off-target kinases [4]; read-out: % Inhibition 1
  inhibition: 91%
off-target kinases [4]; read-out: % Inhibition 2
  inhibition: 90%
off-target kinases [4]; read-out: % Inhibition Avg
  inhibition: 90%
off-target kinases [5]; read-out: % Inhibition 1
  inhibition: 5%
off-target kinases [5]; read-out: % Inhibition 2
  inhibition: -10%
off-target kinases [5]; read-out: % Inhibition Avg
  inhibition: -3%
off-target kinases [6]; read-out: % Inhibition 1
  inhibition: 14%
off-target kinases [6]; read-out: % Inhibition 2
  inhibition: -3%
off-target kinases [6]; read-out: % Inhibition Avg
  inhibition: 6%
off-target kinases [7]; FYN A, LanthaScreen Binding, read-out: % Inhibition Avg
  inhibition: 18%
off-target kinases [7]; FYN, ATP Km app, ZLYTE, read-out: % Inhibition 1
  inhibition: 85%
off-target kinases [7]; FYN, ATP Km app, ZLYTE, read-out: % Inhibition 2
  inhibition: 85%
off-target kinases [7]; FYN, ATP Km app, ZLYTE, read-out: % Inhibition Avg
  inhibition: 85%
off-target kinases [8]; read-out: % Inhibition 1
  inhibition: 65%
off-target kinases [8]; read-out: % Inhibition 2
  inhibition: 60%
off-target kinases [8]; read-out: % Inhibition Avg
  inhibition: 63%
off-target kinases [9]; CDK2/cyclin A1, LanthaScreen Binding, read-out: % Inhibition 1
  inhibition: 33%
off-target kinases [9]; CDK2/cyclin A1, LanthaScreen Binding, read-out: % Inhibition 2
  inhibition: 39%
off-target kinases [9]; CDK2/cyclin A1, LanthaScreen Binding, read-out: % Inhibition Avg
  inhibition: 36%
off-target kinases [9]; CDK2/cyclin A2, LanthaScreen Binding, read-out: % Inhibition 1
  inhibition: 24%
off-target kinases [9]; CDK2/cyclin A2, LanthaScreen Binding, read-out: % Inhibition 2
  inhibition: 29%
off-target kinases [9]; CDK2/cyclin A2, LanthaScreen Binding, read-out: % Inhibition Avg
  inhibition: 26%
off-target kinases [9]; CDK2/cyclin A, ZLYTE, ATP Km app, read-out: % Inhibition 1
  inhibition: 38%
off-target kinases [9]; CDK2/cyclin A, ZLYTE, ATP Km app, read-out: % Inhibition 2
  inhibition: 36%
off-target kinases [9]; CDK2/cyclin A, ZLYTE, ATP Km app, read-out: % Inhibition Avg
  inhibition: 37%
off-target kinases [9]; CDK2/cyclin E1, LanthaScreen Binding, read-out: % Inhibition 1
  inhibition: 15%
off-target kinases [9]; CDK2/cyclin E1, LanthaScreen Binding, read-out: % Inhibition 2
  inhibition: 17%
off-target kinases [9]; CDK2/cyclin E1, LanthaScreen Binding, read-out: % Inhibition Avg
  inhibition: 16%
off-target kinases [9]; CDK2/cyclin O, LanthaScreen, read-out: % Inhibition 1
  inhibition: 39%
off-target kinases [9]; CDK2/cyclin O, LanthaScreen, read-out: % Inhibition 2
  inhibition: 42%
off-target kinases [9]; CDK2/cyclin O, LanthaScreen, read-out: % Inhibition Avg
  inhibition: 41%
